The values below come from ChEMBL document CHEMBL3525934 (Drug Metab Dispos, 2013).

Common to all, as to format: ADME
In data set [1] the test system is Liver microsome. As to the kind of experiment: Drug level in pooled human liver microsomes treated with clozapine at 100 uM after 30 mins by HPLC analysis. Particulars: 0.5 h. (Liver microsomes are vesicles of endoplasmic reticulum, rich in cytochrome P450 enzymes.)
Substrate in data set [2]: CN1CCN(C2=Nc3cc(Cl)ccc3Nc3ccccc32)CC1
As to the kind of experiment: Drug metabolism in supersomes expressing human recombinant CYP2D6 assessed as enzyme-mediated total GSH conjugate formation after 15 mins by Michaelis-Menten equation analysis.

Substrate in data set [3]: CN1CCN(C2=Nc3cc(Cl)ccc3Nc3ccccc32)CC1
As to the kind of experiment: Drug metabolism in supersomes expressing human recombinant CYP2D6 assessed as enzyme-mediated clozapine N-oxide metabolite formation after 15 mins by Michaelis-Menten equation analysis.

Substrate in data set [4]: CN1CCN(C2=Nc3cc(Cl)ccc3Nc3ccccc32)CC1
Put plainly: Drug metabolism in supersomes expressing human recombinant CYP2D6 assessed as enzyme-mediated N-demethyl clozapine metabolite formation after 15 mins by Michaelis-Menten equation analysis.

As for `CNCCNC1=Nc2cc(Cl)ccc2Nc2ccccc21`, the Drug metabolism entry in data set [1] was “metabolite_detected”.

On to `NCCNC1=Nc2cc(Cl)ccc2Nc2ccccc21`, for which the Drug metabolism entry in data set [1] is “metabolite_detected”.

`CN1CCN(C2=Nc3c(ccc(Cl)c3O)Nc3ccccc32)CC1`: the Drug metabolism result in data set [1] is “metabolite_detected”.

In the case of `Clc1ccc2c(c1)N=C(N1CCNCC1)c1ccccc1N2` [N-DESMETHYLCLOZAPINE], the Drug metabolism entry in data set [1] is given as “metabolite_detected”.

`C[N+]1([O-])CCN(C2=Nc3cc(Cl)ccc3Nc3ccccc32)CC1`: in data set [1], the Drug metabolism entry was “metabolite_detected”.

In the case of `CN1CCN(C2=Nc3cc(Cl)c(O)cc3Nc3ccccc32)CC1`, the Drug metabolism entry in data set [1] is reported as “metabolite_detected”.

B1: Cytochrome P450 2D6 (Homo sapiens) (protein)
chain: MGLEALVPLAVIVAIFLLLVDLMHRRQRWAARYPPGPLPLPGLGNLLHVDFQNTPYCFDQLRRRFGDVFSLQLAWTPVVVLNGLAAVREALVTHGEDTADRPPVPITQILGFGPRSQGVFLARYGPAWREQRRFSVSTLRNLGLGKKSLEQWVTEEAACLCAAFANHSGRPFRPNGLLDKAVSNVIASLTCGRRFEYDDPRFLRLLDLAQEGLKEESGFLREVLNAVPVLLHIPALAGKVLRFQKAFLTQLDELLTEHRMTWDPAQPPRDLTEAFLAEMEKAKGNPESSFNDENLRIVVADLFSAGMVTTSTTLAWGLLLMILHPDVQRRVQQEIDDVIGQVRRPEMGDQAHMPYTTAVIHEVQRFGDIVPLGVTHMTSRDIEVQGFRIPKGTTLITNLSSVLKDEAVWEKPFRFHPEHFLDAQGHFVKPEAFLPFSAGRRACLGEPLARMELFLFFTSLLQHFSFSVPTGQPRPSHHGVFAFLVSPSPYELCAVPR
Consider B1, for which the Michaelis-Menten constant (Km) came to 21.9 µM in data set [2], 84.1 µM in data set [3] and 25.3 µM in data set [4].

What is called Km is the substrate concentration at which the rate is half of its maximum.
